In article PMC9481570, “A small molecule antagonist of SMN disrupts the interaction between SMN and RNAP II” (Nature Communications, 2022):

Test system: GEMIN2
Assay: AP-MS chemical proteomics, GEMIN2
Assay type: binding, human
Protocol: The samples for AP-MS were prepared following pulldown procedure as previously described with minor modifications. Briefly, U2OS cells were lysed in RIPA buffer and the cell lysate was equally divided into two groups: (1) DMSO group (control group): the cell lysate was incubated with 20 μM biotin-labeled compound 1; (2) Cpmd 1 group (sample group): the cell lysate was incubated with 20 μM biotin-labeled compound 1 and 200 μM free compound 1. Each group contains three biological replicates. They were incubated overnight at 4 °C, then 30 μL streptavidin beads (Thermo Fisher, 20353) was added and incubated at 4 °C for 1 h. The beads were then washed with RIPA buffer for 3 times, 10 min/time. […]
Samples were analyzed by nanoLC-MS/MS (nanoRSLC, Thermo Fisher) using an Aurora series (Ion Opticks) reversed phase HPLC column (25 cm length × 75 µm inner diameter) and directly injected to an Orbitrap Eclipse (Thermo Fisher) using a 120 min gradient (mobile phase A = 0.1% formic acid, mobile phase B = 99.9% acetonitrile with 0.1% formic acid; hold 2% B for 5 min, 2–6% B in 0.1 min, 6–25% in 100 min, 25–50% in 15 min) at a flow rate of 350 nL/min. Eluted peptide ions were analyzed using a data-dependent acquisition (DDA) method with resolution settings of 120,000 and 15,000 (at m/z 200) for MS1 and MS2 scans, respectively. […]

Structure (SMILES): Cn1c2c(c(=N)c3c1CCC3)CCC2 [Compound 1, 4-methyl-2,3,4,5,6,7-hexahydrodicyclopenta[b,e]pyridin-8(1H)-imine]
- Difference (GN=GEMIN2 (O14893), Cmpd minus DMSO, -LOG(P-value) 2.68522): -5.244
- log2 FC (Cmpd 1/DMSO), GEMIN2 (biotin-Cmpd 1 pulldown, competition with 200 μM compound 1 relative to DMSO, U2OS lysate): −5.2
